Experimental data: US10709692B2, “Isoxazolidine derived inhibitors of receptor interacting protein kinase 1 (RIPK1)” (Denali Therapeutics Inc., priority 2015, dated 2020)
Several values for one entry are separate records, joined by “and”; a condition that tells them apart may be missing. Equal values may be shown once.

Tests used:
[1] = target: T1, receptor interacting protein kinase 1 (GST-hRIPK1 (8-327)) (Homo sapiens, UniProt Q13546); assay: ADP-Glo luminescence assay, RIPK1 autophosphorylation; format: biochemical; conditions: 1.5 μg/mL GST-hRIPK1 (8-327), 50 μM ATP, 3 hours at room temperature
T1 construct: GST-hRIPK1 (8-327) enzyme was generated by Proteros GmbH by Baculovirus expression system
T1 sequence (Q13546 8-327): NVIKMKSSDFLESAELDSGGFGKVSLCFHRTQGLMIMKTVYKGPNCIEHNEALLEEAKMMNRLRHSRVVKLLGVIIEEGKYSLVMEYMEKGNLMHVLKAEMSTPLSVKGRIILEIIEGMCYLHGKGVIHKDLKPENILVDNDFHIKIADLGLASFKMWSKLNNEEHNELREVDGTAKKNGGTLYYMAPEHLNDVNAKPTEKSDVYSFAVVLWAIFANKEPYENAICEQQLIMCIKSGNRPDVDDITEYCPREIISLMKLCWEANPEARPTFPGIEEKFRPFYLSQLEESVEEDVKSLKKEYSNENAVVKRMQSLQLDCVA
Experimental: (§1) Compound potency at receptor interacting protein kinase 1 and selectivity at receptor interacting protein kinase 2 and receptor interacting protein kinase 3 was determined in autophosphorylation mode, using an ADP-Glo luminescence assay, which measures the conversion of ATP to ADP.
(§2) GST-hRIPK1 (8-327) enzyme was generated by Proteros GmbH by Baculovirus expression system. GST-hRIPK2 (1-299) and GST-hRIPK3 (1-518) enzymes were purchased from SignalChem. Test compounds were diluted in DMSO and 0.1 μL of solution was dispensed to each well of a 384-well white solid microplates. The assay buffer was 50 mM HEPES pH 7.5, 50 mM NaCl, 30 mM MgCl2. The buffer was supplemented with 0.02% CHAPS, 0.01% of Pluronic F127, 0.1 mg/mL BSA and 1 mM DTT. Only for receptor interacting protein kinase 1 5 mM MnCl2, was included in the assay buffer on the day of the experiment. The enzymatic reaction consisted of 1.5 μg/mL GST-hRIPK1 (8-327) and 50 μM ATP for receptor interacting protein kinase 1, 0.4 μg/mL GST-hRIPK2 (1-299) and 150 μM ATP, 0.4 μg/mL GST-hRIPK3 (1-518) and 15 μM ATP. 5 μL of enzyme and 5 μL of ATP were added to the plate at twice the final assay concentration and incubated at room temperature for 3 hours. Following this reaction, 10 μL of ADP-Glo reagent (Promega) was added to each well and incubated for 40 minutes at room temperature. This stops the kinase reaction and depletes any remaining ATP. 20 μL of ADP-Glo detection reagent was then added to each well and incubated at room temperature for at least 15 minutes. The detection reagent converts ADP to ATP and introduces luciferase and luciferin to detect ATP. The luminescence is then measured with the Envision (PerkinElmer) plate reader. Test compound inhibition was expressed as percent inhibition of internal assay controls. For concentration response curves, normalized data is fit and pIC50 determined using XL-fit (IDBS) for Excel. The pIC50 were averaged to determine a mean value, for a minimum of two independent experiments.
as §1, with “Certain compounds were tested in the following. Compound” for “Compound”, “assay (Berger S. B. et al. (2015) Cell Death Discovery, 1: 15009),” for “assay,”
GST-hRIPK1 (8-327) enzyme was generated by Proteros GmbH by Baculovirus expression system.
as §2, with “Test” for “GST-hRIPK1 (8-327) enzyme was generated by Proteros GmbH by Baculovirus expression system. GST-hRIPK2 (1-299) and GST-hRIPK3 (1-518) enzymes were purchased from SignalChem. Test”, “microplate.” for “microplates.”, “comprised” for “consisted of”, “1” for “1, 0.4 μg/mL GST-hRIPK2 (1-299) and 150 μM ATP, 0.4 μg/mL GST-hRIPK3 (1-518)”, “IC50” for “pIC50”, “experiments. […]” for “experiments.”

[2] = target: T1, receptor interacting protein kinase 1 (GST-hRIPK1 (8-327)); assay: Fluorescent Polarization Binding (FP Binding) assay; conditions: 10 nM GST-hRIPK1 (8-327), 5 nM fluorescent-labeled ligand, 30 min at RT
Procedure, shortened: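 Displacement of 5 nM fluorescent ligand from 10 nM GST-hRIPK1 (8-327), 30 min at room temperature in pH 7.5 HEPES buffer, 1% DMSO. Fluorescence polarization read (ex 531/em 595 nm); IC50 fitted from percent inhibition and averaged over at least two independent experiments.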

CC(C)(C(=O)N1OCC[C@H]1c1ccc(F)cc1)C(F)F [Compound 101, 3,3-difluoro-1-[(3S)-3-(4-fluorophenyl)-1,2-oxazolidin-2-yl]-2,2-dimethylpropan-1-one]
IC50 [1]: < 1000 nM
IC50 [2]: < 1000 nM and 8 nM

CC(C)(C)C(=O)N1OCC[C@H]1c1cncc(C#N)c1 [Compound 108, 5-[(3S)-2-(2,2-dimethylpropanoyl)-1,2-oxazolidin-3-yl]pyridine-3-carbonitrile]
IC50 [1]: < 1000 nM
IC50 [2]: < 1000 nM

CC(C)(C(=O)N1OCC[C@H]1c1ccc(/C(N)=N/O)cc1)C(F)F [Compound 206, (Z)-4-[(3S)-2-(3,3-Difluoro-2,2-dimethylpropanoyl)-1,2-oxazolidin-3-yl]-N′-hydroxybenzene-1-carboximidamide]
IC50 [2]: 1000 to 10000 nM
melting point: 67.3 to 75.6 °C

CC(C)(C(=O)N1OCC[C@H]1c1ccc(-c2ncon2)cc1)C(F)F [Compound 207, 3,3-difluoro-2,2-dimethyl-1-[(3S)-3-[4-(1,2,4-oxadiazol-3-yl)phenyl]-1,2-oxazolidin-2-yl]propan-1-one]
IC50 [2]: < 1000 nM
melting point: 87.9 to 88.9 °C

CC(C)(C(=O)N1OCC[C@H]1c1ccc(-c2noc(C3CC3)n2)cc1)C(F)F [Compound 208, 1-[(3S)-3-[4-(5-cyclopropyl-1,2,4-oxadiazol-3-yl)phenyl]-1,2-oxazolidin-1-yl]-3,3-difluoro-2,2-dimethylpropan-1-one]
IC50 [2]: < 1000 nM
melting point: 92.1 to 95.6 °C
